Assay results reported in PMC2577671, “Evaluation of Dimebon in cellular model of Huntington's disease” (Molecular Neurodegeneration, 2008).

Legend:
Histamine H1 receptor [1] = biological target: T1, Histamine H1 receptor (Homo sapiens, UniProt P35367); test: MDS Pharma Services binding screen at […]
T1 construct: gene HRH1

α1B-Adrenergic receptor = biological target: T2, α1B-Adrenergic receptor (Rattus norvegicus, UniProt P15823); test: MDS Pharma Services binding screen at […]
T2 construct: gene Adra1b

Opiate delta (OP1, DOP) = biological target: T3, Opiate delta (OP1, DOP) (Homo sapiens, UniProt P41143); test: biochemical; design: MDS Pharma Lead Profiling screen, binding assays, per cent inhibition, duplicate
T3 construct: gene OPRD1
T3 sequence (P41143 whole entry): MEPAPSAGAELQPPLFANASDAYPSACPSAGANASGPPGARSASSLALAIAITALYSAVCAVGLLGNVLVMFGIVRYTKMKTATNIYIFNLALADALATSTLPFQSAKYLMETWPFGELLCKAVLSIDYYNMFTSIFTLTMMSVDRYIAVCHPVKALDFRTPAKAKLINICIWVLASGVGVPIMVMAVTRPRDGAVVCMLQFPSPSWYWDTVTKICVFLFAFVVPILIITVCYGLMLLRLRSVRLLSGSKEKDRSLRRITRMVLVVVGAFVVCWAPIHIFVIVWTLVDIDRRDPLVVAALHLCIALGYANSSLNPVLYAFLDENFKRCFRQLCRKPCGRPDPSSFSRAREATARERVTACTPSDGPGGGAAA
Protocol: (§1) The activity of Dimebon against selected set of biochemical targets was performed by MDS Pharma Services . The Dimebon was provided to MDS Pharma as dry powder, dissolved in DMSO and tested in 10 μM concentrations. The standard Lead Profiling + CYP450 screen was performed according to MDS Pharma specifications with additional custom-chosen targets added to the screen as indicated. To further understand potential mechanisms responsible for clinical effects of Dimebon, we evaluated Dimebon against a set of selected biochemical targets. Dimebon evaluation was performed by MDS Pharma Services . The standard Lead Profiling + CYP450 screen was performed with additional custom-selected targets added to the screen. The results of the screen obtained at 10 μM of Dimebon are provided as Additional File 3. […] Low affinity (50–60% inhibition) interactions were also observed for CYP450, 2C19 receptor, voltage-gated L-type Ca^2+ channel, Dopamine D4.2 receptor, and Serotonin 5-HT1 receptor. […] Supplementary file 1750-1326-3-15-S3.pdf: Additional file 3 The results of Dimebon screening against a selected set of biochemical targets. The complete results obtained by MDS Pharma with a selected list of biochemical targets using 10 μM of Dimebon as a probe. The Cat numbers refer to the MDS Pharma Services assay specification. The receptors and species are listed. Dimebon was tested at 10 μM concentratio in duplicate. The % inhibition by Dimebon is shown numerically and graphically for each receptor. Significant targets (defined as % inhibition > 50%) are highlighted in yellow. Click here for file

Bradykinin B2 = biological target: T4, Bradykinin B2 (Homo sapiens, UniProt P30411); test: biochemical; design: MDS Pharma Lead Profiling screen, binding assays, per cent inhibition, duplicate
T4 construct: gene BDKRB2
T4 sequence (P30411 whole entry): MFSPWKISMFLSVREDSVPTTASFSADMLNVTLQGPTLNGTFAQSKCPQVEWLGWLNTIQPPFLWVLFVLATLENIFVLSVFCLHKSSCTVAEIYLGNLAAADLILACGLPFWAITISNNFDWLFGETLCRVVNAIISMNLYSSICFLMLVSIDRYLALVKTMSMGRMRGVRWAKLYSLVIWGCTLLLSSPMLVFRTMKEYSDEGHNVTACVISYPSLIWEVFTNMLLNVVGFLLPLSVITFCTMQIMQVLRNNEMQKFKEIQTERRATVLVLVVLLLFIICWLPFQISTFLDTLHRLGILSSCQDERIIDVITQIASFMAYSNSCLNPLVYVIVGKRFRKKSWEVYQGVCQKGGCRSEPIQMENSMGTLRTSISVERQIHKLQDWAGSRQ
Protocol: as §1

Muscarinic M1 = biological target: T5, Muscarinic M1 (Homo sapiens, UniProt P11229); test: biochemical; design: MDS Pharma Lead Profiling screen, binding assays, per cent inhibition, duplicate
T5 construct: gene CHRM1
T5 sequence (P11229 whole entry): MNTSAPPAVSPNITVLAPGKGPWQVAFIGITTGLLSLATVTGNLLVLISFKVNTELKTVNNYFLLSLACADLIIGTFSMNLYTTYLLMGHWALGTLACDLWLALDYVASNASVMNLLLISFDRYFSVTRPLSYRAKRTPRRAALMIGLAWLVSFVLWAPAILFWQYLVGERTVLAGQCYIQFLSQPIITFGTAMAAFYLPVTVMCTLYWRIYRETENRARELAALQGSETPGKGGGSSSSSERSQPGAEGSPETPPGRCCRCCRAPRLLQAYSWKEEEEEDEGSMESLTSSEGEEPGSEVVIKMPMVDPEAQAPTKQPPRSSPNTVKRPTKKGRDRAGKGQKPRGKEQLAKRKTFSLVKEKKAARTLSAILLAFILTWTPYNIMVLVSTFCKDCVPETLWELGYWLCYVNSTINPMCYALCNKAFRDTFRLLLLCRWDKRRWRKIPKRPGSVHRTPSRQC
Protocol: as §1

[2] = biological target: T6, Serotonin 5-HT5A receptor (Homo sapiens, UniProt P47898); test: biochemical; design: MDS Pharma Lead Profiling screen, binding assays, per cent inhibition, duplicate
T6 construct: gene HTR5A
T6 sequence (P47898 whole entry): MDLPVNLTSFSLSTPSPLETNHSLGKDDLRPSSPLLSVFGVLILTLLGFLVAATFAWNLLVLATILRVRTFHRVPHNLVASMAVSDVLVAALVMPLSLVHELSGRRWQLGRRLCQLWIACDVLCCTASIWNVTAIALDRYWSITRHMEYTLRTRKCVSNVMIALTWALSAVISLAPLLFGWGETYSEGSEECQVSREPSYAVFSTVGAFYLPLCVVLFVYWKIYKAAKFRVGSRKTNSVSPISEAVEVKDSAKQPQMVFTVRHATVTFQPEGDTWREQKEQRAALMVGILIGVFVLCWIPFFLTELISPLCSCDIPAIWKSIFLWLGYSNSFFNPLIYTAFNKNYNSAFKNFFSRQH
Protocol: as §1

Histamine H1 receptor [3] = biological target: T1, Histamine H1 receptor; test: biochemical; design: MDS Pharma Lead Profiling screen, binding assays, per cent inhibition, duplicate
Protocol: as §1

Serotonin 5-HT3 = biological target: T7, Serotonin 5-HT3 (Homo sapiens, UniProt P46098); test: biochemical; design: MDS Pharma Lead Profiling screen, binding assays, per cent inhibition, duplicate
T7 construct: gene HTR3A
T7 sequence (P46098 whole entry): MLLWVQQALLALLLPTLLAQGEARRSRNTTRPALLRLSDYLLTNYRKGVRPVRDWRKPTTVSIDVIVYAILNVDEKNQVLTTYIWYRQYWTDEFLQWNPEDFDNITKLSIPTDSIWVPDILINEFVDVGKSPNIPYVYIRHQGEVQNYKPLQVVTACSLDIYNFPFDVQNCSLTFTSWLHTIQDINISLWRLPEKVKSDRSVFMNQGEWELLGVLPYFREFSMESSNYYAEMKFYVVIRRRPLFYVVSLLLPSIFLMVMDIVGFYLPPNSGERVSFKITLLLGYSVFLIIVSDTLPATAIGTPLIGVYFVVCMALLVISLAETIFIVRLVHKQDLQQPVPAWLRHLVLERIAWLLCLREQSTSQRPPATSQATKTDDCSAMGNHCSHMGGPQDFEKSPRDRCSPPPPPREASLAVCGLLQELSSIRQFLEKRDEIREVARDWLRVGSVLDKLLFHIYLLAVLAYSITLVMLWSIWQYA
Protocol: as §1

Histamine H3 = biological target: T8, Histamine H3 (Homo sapiens, UniProt Q9Y5N1); test: biochemical; design: MDS Pharma Lead Profiling screen, binding assays, per cent inhibition, duplicate
T8 construct: gene HRH3
Protocol: as §1

[4] = biological target: T9, Transporter, Norepinephrine (NET) (Homo sapiens, UniProt P23975); test: biochemical; design: MDS Pharma Lead Profiling screen, binding assays, per cent inhibition, duplicate
T9 construct: gene SLC6A2
Protocol: as §1

GABAB1A = biological target: T10, GABAB1A (Homo sapiens, UniProt Q9UBS5); test: biochemical; design: MDS Pharma Lead Profiling screen, binding assays, per cent inhibition, duplicate
T10 construct: gene GABBR1; isoform 1A
Protocol: as §1

Dopamine D2S receptor [5] = biological target: T11, Dopamine D2S receptor (Homo sapiens, UniProt P14416); test: biochemical; design: MDS Pharma Lead Profiling screen, binding assays, per cent inhibition, duplicate
T11 construct: gene DRD2; D2S
Protocol: as §1
Target sequence in this assay (P14416 1-414 isoform P14416-2): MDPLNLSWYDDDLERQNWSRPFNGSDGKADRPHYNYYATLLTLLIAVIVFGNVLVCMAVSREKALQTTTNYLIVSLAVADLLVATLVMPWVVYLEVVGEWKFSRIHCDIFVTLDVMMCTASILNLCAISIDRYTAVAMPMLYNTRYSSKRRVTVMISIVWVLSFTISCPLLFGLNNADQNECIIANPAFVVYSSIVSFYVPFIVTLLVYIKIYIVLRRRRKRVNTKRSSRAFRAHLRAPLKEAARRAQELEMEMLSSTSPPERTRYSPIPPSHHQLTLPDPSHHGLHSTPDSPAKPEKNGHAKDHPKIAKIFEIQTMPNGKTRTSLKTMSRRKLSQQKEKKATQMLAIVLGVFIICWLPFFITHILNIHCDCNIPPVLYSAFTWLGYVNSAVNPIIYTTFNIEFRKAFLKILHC

Histamine H2 receptor = biological target: T12, Histamine H2 receptor (Homo sapiens, UniProt P25021); test: biochemical; design: MDS Pharma Lead Profiling screen, binding assays, per cent inhibition, duplicate
T12 construct: gene HRH2
T12 sequence (P25021 whole entry): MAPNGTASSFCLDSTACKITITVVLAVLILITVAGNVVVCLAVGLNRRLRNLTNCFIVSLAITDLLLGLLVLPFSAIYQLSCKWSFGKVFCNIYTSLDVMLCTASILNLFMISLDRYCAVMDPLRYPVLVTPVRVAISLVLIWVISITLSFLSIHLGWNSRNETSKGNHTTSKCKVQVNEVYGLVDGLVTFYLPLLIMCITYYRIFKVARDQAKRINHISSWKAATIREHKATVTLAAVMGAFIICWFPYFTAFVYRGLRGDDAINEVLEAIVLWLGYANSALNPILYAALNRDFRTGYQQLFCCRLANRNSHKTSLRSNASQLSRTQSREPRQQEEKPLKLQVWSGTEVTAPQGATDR
Protocol: as §1

Adenosine A1 = biological target: T13, Adenosine A1 (Homo sapiens, UniProt P30542); test: biochemical; design: MDS Pharma Lead Profiling screen, binding assays, per cent inhibition, duplicate
T13 construct: gene ADORA1
T13 sequence (P30542 whole entry): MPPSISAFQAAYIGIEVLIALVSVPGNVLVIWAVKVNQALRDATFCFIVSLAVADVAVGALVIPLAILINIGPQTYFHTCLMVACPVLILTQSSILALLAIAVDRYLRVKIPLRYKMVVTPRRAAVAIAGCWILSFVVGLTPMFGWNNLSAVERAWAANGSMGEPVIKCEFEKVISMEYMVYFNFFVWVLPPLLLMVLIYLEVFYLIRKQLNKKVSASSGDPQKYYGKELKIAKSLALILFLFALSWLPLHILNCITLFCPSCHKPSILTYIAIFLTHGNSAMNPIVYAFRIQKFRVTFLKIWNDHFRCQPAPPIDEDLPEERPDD
Protocol: as §1

Neuropeptide Y Y2 = biological target: T14, Neuropeptide Y Y2 (Homo sapiens, UniProt P49146); test: biochemical; design: MDS Pharma Lead Profiling screen, binding assays, per cent inhibition, duplicate
T14 construct: gene NPY2R
Protocol: as §1

Melatonin MT1 = biological target: T15, Melatonin MT1 (Homo sapiens, UniProt P48039); test: biochemical; design: MDS Pharma Lead Profiling screen, binding assays, per cent inhibition, duplicate
T15 construct: gene MTNR1A
T15 sequence (P48039 whole entry): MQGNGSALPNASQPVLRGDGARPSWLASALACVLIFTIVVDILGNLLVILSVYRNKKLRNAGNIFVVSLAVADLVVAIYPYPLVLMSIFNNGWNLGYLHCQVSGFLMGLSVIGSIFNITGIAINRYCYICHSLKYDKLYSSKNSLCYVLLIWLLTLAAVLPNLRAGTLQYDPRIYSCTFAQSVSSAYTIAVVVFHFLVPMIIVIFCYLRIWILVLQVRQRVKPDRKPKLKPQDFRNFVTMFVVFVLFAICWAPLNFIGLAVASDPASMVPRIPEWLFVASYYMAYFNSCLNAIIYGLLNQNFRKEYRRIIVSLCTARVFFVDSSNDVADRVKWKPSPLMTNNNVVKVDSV
Protocol: as §1

Opiate kappa (OP2, KOP) = biological target: T16, Opiate kappa (OP2, KOP) (Homo sapiens, UniProt P41145); test: biochemical; design: MDS Pharma Lead Profiling screen, binding assays, per cent inhibition, duplicate
T16 construct: gene OPRK1
Protocol: as §1

Serotonin 5-HT1A = biological target: T17, Serotonin 5-HT1A (Homo sapiens, UniProt P08908); test: biochemical; design: MDS Pharma Lead Profiling screen, binding assays, per cent inhibition, duplicate
T17 construct: gene HTR1A
T17 sequence (P08908 whole entry): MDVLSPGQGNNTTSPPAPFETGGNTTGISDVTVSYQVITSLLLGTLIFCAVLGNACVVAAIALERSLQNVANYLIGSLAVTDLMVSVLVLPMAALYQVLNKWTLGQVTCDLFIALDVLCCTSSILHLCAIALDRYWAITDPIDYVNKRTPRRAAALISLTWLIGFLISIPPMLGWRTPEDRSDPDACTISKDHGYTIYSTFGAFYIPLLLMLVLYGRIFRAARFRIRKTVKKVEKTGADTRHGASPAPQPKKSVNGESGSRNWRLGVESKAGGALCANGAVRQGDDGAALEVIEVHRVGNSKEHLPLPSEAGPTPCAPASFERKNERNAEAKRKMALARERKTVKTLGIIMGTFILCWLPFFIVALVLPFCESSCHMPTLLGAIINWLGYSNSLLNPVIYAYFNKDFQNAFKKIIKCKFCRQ
Protocol: as §1

α1A-Adrenergic receptor = biological target: T18, α1A-Adrenergic receptor (Rattus norvegicus, UniProt P43140); test: biochemical; design: MDS Pharma Lead Profiling screen, binding assays, per cent inhibition, duplicate
T18 construct: gene Adra1a
Protocol: as §1

Dopamine D2S receptor [6] = biological target: T11, Dopamine D2S receptor; test: MDS Pharma Services binding screen at […]
Target sequence in this assay (P14416 other isoform, or with tags, fused parts or gaps): as the sequence (P14416 1-414 isoform P14416-2) above

[7] = biological target: T6, Serotonin 5-HT5A receptor; test: MDS Pharma Services binding screen at […]
α2A-Adrenergic receptor = biological target: T19, α2A-Adrenergic receptor (Homo sapiens, UniProt P08913); test: MDS Pharma Services binding screen at […]
T19 construct: gene ADRA2A
T19 sequence (P08913 whole entry): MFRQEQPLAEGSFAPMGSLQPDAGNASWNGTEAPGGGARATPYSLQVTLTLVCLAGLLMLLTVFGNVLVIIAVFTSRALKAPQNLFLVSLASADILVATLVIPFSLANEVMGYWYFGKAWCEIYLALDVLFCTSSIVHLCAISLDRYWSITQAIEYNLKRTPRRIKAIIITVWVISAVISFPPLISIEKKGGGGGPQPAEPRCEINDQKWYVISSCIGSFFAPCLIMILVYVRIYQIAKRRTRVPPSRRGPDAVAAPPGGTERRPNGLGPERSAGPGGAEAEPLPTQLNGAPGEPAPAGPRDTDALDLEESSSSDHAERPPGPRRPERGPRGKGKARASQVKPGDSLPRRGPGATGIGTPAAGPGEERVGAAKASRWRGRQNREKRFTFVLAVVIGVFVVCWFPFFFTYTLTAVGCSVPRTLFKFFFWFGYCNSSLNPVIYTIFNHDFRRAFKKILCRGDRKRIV

T1 sequence (P35367 whole entry): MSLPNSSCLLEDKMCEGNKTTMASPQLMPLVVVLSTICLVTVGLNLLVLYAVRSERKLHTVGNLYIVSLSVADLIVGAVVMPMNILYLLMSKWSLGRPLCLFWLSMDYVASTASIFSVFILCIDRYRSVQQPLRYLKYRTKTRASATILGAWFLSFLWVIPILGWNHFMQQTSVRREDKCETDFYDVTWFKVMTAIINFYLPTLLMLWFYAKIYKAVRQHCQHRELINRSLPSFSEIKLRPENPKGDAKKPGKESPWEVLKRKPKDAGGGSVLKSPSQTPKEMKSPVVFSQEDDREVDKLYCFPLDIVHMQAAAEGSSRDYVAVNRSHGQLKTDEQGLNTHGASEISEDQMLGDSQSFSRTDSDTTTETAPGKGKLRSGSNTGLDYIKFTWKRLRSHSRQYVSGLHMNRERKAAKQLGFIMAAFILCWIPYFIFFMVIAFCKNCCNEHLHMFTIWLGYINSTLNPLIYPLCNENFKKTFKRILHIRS

## Cc1ccc2c(c1)c1c(n2CCc2ccc(C)nc2)CCN(C)C1 [Dimebon, 2,3,4,5-Tetrahydro-2,8-dimethyl-5-(2-(6-methyl-3-pyridyl)ethyl)-1H-pyrido(4,3-b)indole]
Histamine H1 receptor [1]
  inhibition at 10 µM: > 90%
α1B-Adrenergic receptor
  inhibition at 10 µM: > 90%
Opiate delta (OP1, DOP)
  inhibition at 10 µM: 0%
Bradykinin B2
  inhibition at 10 µM: -2%
Muscarinic M1
  inhibition at 10 µM: 9%
[2]
  inhibition at 10 µM: 99%
Histamine H1 receptor [3]
  inhibition at 10 µM: 101%
Serotonin 5-HT3
  inhibition at 10 µM: -7%
Histamine H3
  inhibition at 10 µM: -4%
[4]
  inhibition at 10 µM: 20%
GABAB1A
  inhibition at 10 µM: -10%
Dopamine D2S receptor [5]
  inhibition at 10 µM: 83%
Histamine H2 receptor
  inhibition at 10 µM: 96%
Adenosine A1
  inhibition at 10 µM: 0%
Neuropeptide Y Y2
  inhibition at 10 µM: -5%
Melatonin MT1
  inhibition at 10 µM: 3%
Opiate kappa (OP2, KOP)
  inhibition at 10 µM: 16%
Serotonin 5-HT1A
  inhibition at 10 µM: 22%
α1A-Adrenergic receptor
  inhibition at 10 µM: 96%
Dopamine D2S receptor [6]
  inhibition at 10 µM: 70 to 80%
[7]
  inhibition at 10 µM: > 90%
α2A-Adrenergic receptor
  inhibition at 10 µM: > 90%
